# Values quoted from earlier work in patent publication US6756428B2, “Degradable plastics possessing a microbe-inhibiting quality” (Seefar Technologies, Incorporated, priority 1999, dated 2004).
# Read-outs that look alike come from different tables or passages of the source.
# How the values were obtained:
# [1] = tested on: Staphylococcus aureus bacteria
# [2] = tested on: Pseudomonas aeruginosa bacteria; conditions: bacterium P aeruginosa
SMILES,solubility in dilute alkali solution (dilute alkali solution),solubility in ethanol,solubility in water,MIC ([1]; against S. aureus),MIC [2],MIC (fungus Aspergillus niger; against A. niger),LD50 oral toxicity (dogs),"solubility in acetone (acetone, 25° C.)",solubility in ethanol (25° C.),solubility in water (25° C.),MIC ([1]; against Staphylococcus aureus bacteria),MIC (fungus Aspergillus niger; against the fungus Aspergillus niger)
"Oc1cc(Cl)ccc1Oc1ccc(Cl)cc1Cl [triclosan, 2,4,4″-trichloro-2-hydroxydiphenylether]",sparingly soluble,soluble,insoluble,about 0.01 ppm,about 100 ppm,about 100 ppm,> 5000 mg/kg,–,–,–,–,–
"Cc1ccc(S(=O)(=O)C(I)I)cc1 [DIMTS, diiodomethyl-p-tolylsulphone]",–,–,–,–,–,–,–,350 mg/mL,20 mg/mL,0.0001 mg/mL,about 50 mg/L,about 5 mg/L
